Entries after “also recorded” stand apart in the source; their conditions may differ.
Experiments:
[1] = system: EYFP-IAA17|AFB2 auxin reporting strain expressing iaaH; assay: Time-lapse cytometry of iaaH sender strain with EYFP-IAA17|AFB2 auxin reporter after IAM or auxin; type: cell-based, Saccharomyces cerevisiae
Excerpt: FIG. 3A illustrates an auxin sender strain design. The iaaH enzyme of Agrobacterium tumefaciens catalyzes the conversion of indole-3-acetamide (IAM) into auxin, inducing the degradation of proteins fused to an auxin degron. The iaaH enzyme (sender cells) was integrated into an auxin reporting strain (the EYFP-IAA17|AFB2 strain from Havens, et al. (2012) Plant Physiol. 160, 135-42) to test for internal auxin production.
Yeast can produce tunable levels of auxin via expression of Iaah from Agrobacterium tumefaciens. To generate an auxin producing strain, half of the IAM pathway from Agrobacterium tumefaciens was integrated into yeast (see Zhao, Y. (2010) Annu. Rev. Plant Biol. 61, 49-64). The IAM pathway is a two-step enzymatic process that converts tryptophan to IAM and then into auxin. The first step is via tryptophan-2-monooxygenase (iaaM, not examined here). The second step is catalyzed by indole-3-acetamide hydrolase (iaaH). To test whether yeast could produce auxin from IAM using only the second enzyme, the iaaH gene from the Agrobacterium tumefaciens Ti plasmid (see Pacurar, D. I., et al. (2011) Physiol. Mol. Plant Pathol. 76, 76-81) was integrated into an auxin reporting yeast strain (see FIG. 3A) containing a IAA-YFP fusion protein. After adding IAM, reporter degradation rates were measured via time-lapse cytometry (see FIG. 3B).
(§1) All cytometry measurements were acquired with an ACCURI™ C6 cytometer with attached CSAMPLER™ apparatus using 488 nm and 640 nm excitation lasers and a 533 nm (FL-1: YFP/GFP) emission filter. For experiments involving steady-state ADC behavior (see FIGS. 6A-7B) cultures were grown overnight in SC media with 1 nM beta-estradiol for ADC expression induction. The next morning they were diluted down 1:100 and then grown up for 5 hours and then induced with varying auxin concentrations from stock solutions. These cultures were then grown overnight and fluorescence was measured the next day. For the replicates, untreated cultures from the previous day's experiments were used as overnights to begin the next day's cultures.

[2] = system: receiver cells (ADCTF, gRNA targeting minimal CYC1 promoter driving EGFP); assay: Coculture of sender and receiver strains treated with IAM; type: cell-based, Saccharomyces cerevisiae; details: saturating IAM
Excerpt: FIG. 5A illustrates coculture of sender and receiver strains. Sender cells convert IAM into auxin that then diffuses out of sender cells and into receiver cells where it causes the degradation of ADCTFs, producing a drop in fluorescence.
Sender cells can produce a tunable auxin response in receiver cells. Sender and receiver cells were cocultured in different ratios to measure the effect of sender cell concentration on auxin signal production. Senders constitutively express iaaH and the receivers expressed an activating ADCTF and a gRNA targeting a minimal CYC1 promoter driving EGFP (see FIG. 5A). […] Three different receiver strains with a range of responses to auxin were tested with the sender strain. […] In addition, a 10% fraction of sender cells is sufficient for a significant change in fluorescence in receiver cells at steady state and a 50% fraction produces a nearly saturating signal (see FIGS. 5C and 5D).

[3] = system: ADCTF (auxin receiver) strain, minimal CYC1 promoter driving EGFP; assay: Cytometry of ADCTF receiver yeast strains (GFP reporter) after auxin induction; type: cell-based, Saccharomyces cerevisiae
Excerpt: Synthetic, scalable, auxin-modulated transcription factors are provided. To link an auxin sensor to diverse transcriptional responses and targets, auxin degradable CRISPR transcription factors (ADCTFs) with three modular domains were designed (see FIG. 1A). In some embodiments, a core component of the ADCTFs can be the CRISPR-based transcription factor described by Farzadfard, et al. (“Tunable and multifunctional eukaryotic transcription factors based on CRISPR/Cas,” ACS synthetic biology 2.10 (2013): 604-613), wherein a dCas9 protein functions as a programmable DNA binding module. The dCas9 was fused to a transcriptional effector domain, in this case the transcriptional activator VP64, and to an IAA degron. In the presence of an AFB, ADCTFs should generally be ubiquitinated and degraded when exposed to auxin. The ADCTFs were tested by targeting them to activate the expression of EGFP from a minimal CYC1 promoter and observing deactivation of fluorescence upon the addition of auxin. […] Auxin dependent regulation was independent of the promoter being regulated by the ADCTF (see FIG. 6B). The observed effect was also reversible.
as §1
For time course experiments, cultures were grown overnight in SC media with 1 nM beta-estradiol for ADC expression induction. The next morning two sets of parallel cultures were set up by diluting down the overnights 1:100. These were then grown up for 5 hours and then induced with 30 μM auxin and reads were taken every 30 minutes for approximately seven hours. A final steady state reading was taken the next day.
Cytometry data were analyzed using custom R scripts and the FLOWCORE™ package by first gating for the yeast diploid population and then generating mean fluorescence values for every point. These datasets were then collectively fit using the LOESS fitting function in R and metrics and error were derived from these fits. For the recovery experiments, the same protocol was used except the overnight cultures were grown up in SC with 1 nM beta-estradiol and 30 μM auxin.

[4] = system: UBQ1 promoter driving venus-luciferase reporter repressed by ADCTF; assay: ADCTF-regulated venus-luciferase reporter in plants after auxin treatment; type: in vivo, Arabidopsis thaliana
Excerpt: FIG. 12A is a schematic of the genetic circuit that was transformed into Arabidopsis thaliana to test the function of the hormone degradable CRISPR based transcription factor (HDCTF). […] These complex together and cause repression of the UBQ1 promoter, which is driving the expression of a venus-luciferase fusion reporter with a nuclear localization tag fused to it. Auxin can interact with the degron domain of the ADCTF (a version of the HDCTF) to degrade the transcription factor and relieve repression.
FIG. 12B is graph showing the normalized luciferase reporter activity over time for two plants, one of which has an ADCTF with a functional degron and the other which has a ADCTF with a stabilized degron. The orange bar indicates when the plants were exposed to either an auxin (solid line) or control (dashed line) treatment. The box plot summarizes the behavior of several plant lines with the functional or stabilized degron ADCTFs eighty minutes after treatment.

[5] = system: laboratory strains of yeast; details: grown in standard conditions; cited from earlier work

NC(=O)Cc1c[nH]c2ccccc12 [IAM, indole-3-acetamide]
delay between addition of IAM and production of auxin [1]: no significant delay | auxin-induced degradation rate (t1/2) of reporter ([1]; for a given molarity, compared with auxin): comparable to that of native auxin | fluorescence of sender cells following addition of IAM ([1]; time-lapse cytometry): decreased to basal levels | steady state fluorescence of sender cells ([1]; varying doses of IAM): lower steady state fluorescence; also recorded: converge to those of auxin | fluorescence / gene activation in receiver strain [2]: dropped in fluorescence over time; also recorded: comparable to direct addition of auxin

auxin
release of regulation with minimal pGAL promoter driving GFP ([3]; 30 μM auxin, degron 17 with AFB2 or TIR1-DM, compared with pCYC1 target): comparable release of regulation | GFP fluorescence level following addition of auxin ([3]; time-lapse cytometry, ADCTF strain expressing gRNA): dropped to basal levels; also recorded: dropped to levels at or below the control (no gRNA) levels | reporter expression after auxin was removed ([3]; wash-out after steady state): returned to its activated state | normalized luciferase reporter activity ([4]; ADCTF with functional degron, eighty minutes after treatment): significant increase in reporter expression | reporter expression in root tip (confocal microscopy) ([4]; root tip): significant increase in reporter expression | effects on laboratory strains of yeast [5]: does not have measurable effects

B1: tir1-D/M: mutant of TIR1 F-box protein (protein, UniProt Q570C0 1-594, looked up, variant D170E M473L)
Protein TRANSPORT INHIBITOR …: MQKRIALSFPEEVLEHVFSFIQLDKDRNSVSLVCKSWYEIERWCRRKVFIGNCYAVSPATVIRRFPKVRSVELKGKPHFADFNLVPDGWGGYVYPWIEAMSSSYTWLEEIRLKRMVVTDDCLELIAKSFKNFKVLVLSSCEGFSTDGLAAIAATCRNLKELDLRESDVDEVSGHWLSHFPDTYTSLVSLNISCLASEVSFSALERLVTRCPNLKSLKLNRAVPLEKLATLLQRAPQLEELGTGGYTAEVRPDVYSGLSVALSGCKELRCLSGFWDAVPAYLPAVYSVCSRLTTLNLSYATVQSYDLVKLLCQCPKLQRLWVLDYIEDAGLEVLASTCKDLRELRVFPSEPFVMEPNVALTEQGLVSVSMGCPKLESVLYFCRQMTNAALITIARNRPNMTRFRLCIIEPKAPDYLTLEPLDIGFGAIVEHCKDLRRLSLSGLLTDKVFEYIGTYAKKMEMLSVAFAGDSDLGLHHVLSGCDSLRKLEIRDCPFGDKALLANASKLETMRSLWMSSCSVSFGACKLLGQKMPKLNVEVIDERGAPDSRPESCPVERVFIYRTVAGPRFDMPGFVWNMDQDSTMRFSRQIITTNGL
degradation kinetics (time to 50% degradation) ([3]; 30 μM auxin induction, ranking across library): fastest overall | auxin sensitivity range conferred by F-box protein ([3]; steady state, dose response twenty-four hours after induction): narrowest
